What was measured:
OVCAR-3 cells = assay: [3H]-Thymidine proliferation assay with OVCAR-3 cells; type: cell-based; details: ovarian cancer cells, 6 days, 3H-thymidine incorporation
Experimental: 1. Preparation of Suspension • When OVCAR-3 cells were ˜50% confluent, aspirated media. Washed cells with 1×PBS. Trypsinized with trypsin-EDTA, collected cells from the tissue culture flask, centrifuged (200×g, 5 min) and resuspended in media.
2. Cell Plating. • Counted the cells and adjusted the cell density to 11.4×10^3 to provide 2000 cells in 175 μl (for 1 well). Distributed cell suspension into a 96 well plates at 175 μl (2000 cells) per well. Incubated plate for 24 h at 37° C. in a humidified atmosphere plus 5% CO2. • Substrate addition. • Added 25 μl of compound (final concentration 10^−7 M, 5×10^−8 M 10^−8 M, 5×10^−9 M, 10^−9 M, 10^−10M or 0 M) into each designated well. Incubated plates for 6 days without changing media and drugs at 37° C. in a humidified atmosphere plus 5% CO2.
3. [^3H]-Thymidine incorporation • Added ^3H-thymidine at 0.02 μCi per well and incubated at 37° C. in a humidified atmosphere plus 5% CO2 for 6 h.
4. Plate Harvesting. • Aspirated all media and washed cells with 1×PBS. Trypsinized cells for 30 min at 37° C. in a humidified atmosphere plus 5% CO2. Harvested cells onto a 96 well filter plate (Millipore) using a Tomtec Cell Harvestor, according to manufacturers instructions.
5. Scintillation Counting. • Added 25 μl of scintillation fluid per well. Counted the plate using a scintillation counter. Results: Compounds (20R)-I(a), (20R)-I(c) and (20R)-I(e) all inhibited the proliferation of OVCAR-3 cells.

CYP24 = target: T1, CYP24 (Homo sapiens, UniProt Q07973); assay: CYP24 enzyme assay (V79-CYP24 cells, 3H-1α,25(OH)2D3 substrate); type: cell-based; details: substrate 20 nM, 2 hours, read-out: IC50 in the inhibition of CYP24
T1 construct: expressed in transfected cells; host or cells: V79-CYP24 cells (V79 = Chinese hamster lung fibroblasts, own knowledge; kept under hygromycin selection)
T1 sequence (Q07973 36-514): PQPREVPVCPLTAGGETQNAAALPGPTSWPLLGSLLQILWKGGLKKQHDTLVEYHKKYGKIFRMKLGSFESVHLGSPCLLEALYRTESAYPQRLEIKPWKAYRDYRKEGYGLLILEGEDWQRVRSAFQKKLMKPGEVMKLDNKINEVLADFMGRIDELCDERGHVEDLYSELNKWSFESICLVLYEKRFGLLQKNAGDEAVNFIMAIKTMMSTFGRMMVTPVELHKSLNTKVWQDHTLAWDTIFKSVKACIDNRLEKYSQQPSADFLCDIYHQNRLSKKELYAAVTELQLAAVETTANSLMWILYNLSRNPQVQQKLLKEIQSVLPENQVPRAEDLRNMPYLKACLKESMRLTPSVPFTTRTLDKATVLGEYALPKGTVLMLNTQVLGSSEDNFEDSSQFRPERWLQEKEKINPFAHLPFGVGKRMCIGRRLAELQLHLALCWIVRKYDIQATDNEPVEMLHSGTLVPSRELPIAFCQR
Experimental: (i) Material and Reagents:
Substrates (1 mM) reconstituted in isopropanol
1. Preparation of Cell Suspension • On the day of the assay, washed the monolayer of V79-CYP24 cells once with 1×PBS buffer and then trypsinized for 5 min at room temperature (approx. 22° C.). Added 1×PBS. Collected cells into tube, centrifuged cells (500×g, 5 min) and resuspended in DMEM+1% BSA media. Counted cells and adjusted density to 2 million/1 mL.
2. Cell Plating • Added 80 μl of cell suspension to appropriately labeled wells of a 96-well plate. Incubated plate for 45 minutes at 37° C. in a humidified atmosphere containing 5% CO2.
3. Compound Addition • Added 10 μl of inhibitor (10^−6 to 10^−10 M) and then after 35-40 min added 10 μl of substrate [^3H-1β]-1α,25(OH)2D3 (20 nM) for 2 hours at 37° C. in a humidified atmosphere containing 5% CO2. Both inhibitor and substrate were prepared in DMEM with 1% BSA media.
4. Lipid Extraction and Counting • Added 250 μl of methanol to stop the reaction and mixed. Added […] of dichloromethane, covered block and vortexed. Added […] of dichloromethane again, added […] of saturated KCl and vortexed. Centrifuged at 3000 rpm for 30 min. Triplicate 100 μl aliquots of aqueous fraction were mixed with 200 μl of scintillation fluid and the radioactivity was measured using a scintillation counter. All values were normalized for background. (iii) Results: • 1. […] (iv) Reference: 1. PCT Patent Application Serial No. PCT/CA03/00620

CYP24 mRNA = assay: CYP24 transcriptional activation assay in U-937 cells (real time PCR); type: cell-based, human; details: six hours, normalized to GAPDH, 100 nM calcitriol set to 100%
Experimental: 1α,25(OH)2D3 1 mM reconstituted in isopropanol
• Sodium pyruvate • Non-essential amino acids • HEPES • 10% fetal bovine serum Phorbol 12-myristate 13-acetate (PMA) 24-well plate Isopropanol TRIzol® reagent (Invitrogen) Chloroform Ethanol Diethylpyrocarbonate treated dH2O Thermoscript™ RT-PCR System kit (Invitrogen) Human CYP24 TaqMan® Probe (Applied Biosystems Inc) Human GAPDH TaqMan® Probe (Applied Biosystems Inc) TaqMan® Universal Master Mix Probe (Applied Biosystems Inc) (ii) Procedure:
1. Cell Culture, Stimulation and Plating • Cultured U-937 cells in 4+RPMI media to a level of ≈80% confluence. Pelleted cells by centrifugation and resuspended to a concentration of 5×10^5 cells per 1 ml media. Treated U-937 cells with a final concentration of PMA of 20 ng/ml. To each well, of a 24-well plate, added 1 ml of cell suspension and incubated overnight at 37° C., in a humidified atmosphere containing 5% CO2, for adherence of cells to the wells.
2. Cell Treatment and TRIzol® Addition • Changed the media with 1 ml of fresh 4+RPMI media. Added 1 μl of the working solutions of 1, 10, and 100 μM of the compound being tested, in triplicate. Added 1 μl of isopropanol as a control, in triplicate. Incubated the cells for six hours at 37° C., in a humidified atmosphere containing 5% CO2, aspirated off the media and then added 1 ml of TRIzol® reagent. Transferred TRIzol® with cell lysate to a 1.7 ml microcentrifuge tube and stored at −80° C.
3. […] Determined the concentration of RNA using a spectrophotometer to measure the optical density of each sample, at a wavelength of 260 nm. […]
4. CYP24/GAPDH Real Time PCR • Determined the amount of CYP24 and GAPDH mRNA present in each sample using commercial TaqMan® probes, from Applied Biosystems Inc. (Foster City, Calif.). Detected both genes in the same 20 μl reaction, using an ABI PRISM 96-well optical reaction plate and cycle 50 times using an ABI Prism 7000 Sequence Detection System® (ABI). […]

[1] = Standard hypercalcemia assay (urine calcium, oral daily dosing for one week); type: in vivo; details: rat

| Structure (SMILES) | Inhibition of OVCAR-3 cell proliferation (OVCAR-3 cells) | IC50 (CYP24) [µM] | CYP24 mRNA induction, activity as % of that for calcitriol at 100 nM (CYP24 mRNA) [%] | Levels of calcium in the urine [1] |
| --- | --- | --- | --- | --- |
| C=C1/C(=C\C=C2/CCC[C@]3(C)C([C@H](C)C/C=C/C(=N\OC)C(F)(F)F)=CC[C@@H]23)C[C@@H](O)C[C@@H]1O [(20R)-I(a)] | inhibited | 0.488 | 54 |  |
| C=C1/C(=C\C=C2/CCC[C@]3(C)C([C@H](C)C/C=C/C(=N\OC)C4CC4)=CC[C@@H]23)C[C@@H](O)C[C@@H]1O [(20R)-I(c)] | inhibited | 0.0859 | 30 |  |
| C=C1/C(=C\C=C2/CCC[C@]3(C)[C@@H]([C@H](C)CCCC(C)(C)O)CC[C@@H]23)C[C@@H](O)C[C@@H]1O [calcitriol, 1α,25-Dihydroxy vitamin D3] |  |  |  | significant increase |

Source: patent publication US8906888B2, “Low-calcemic 16,23-diene 25-oxime analogs of 1α,25-dihydroxy vitamin D3” (Cytochroma Inc., priority 2005, dated 2014)
